Test results: US11104674B2 (Hoffmann-La Roche Inc., priority 2016, dated 2021)

test system: HBsAg; test: HBsAg assay (chemiluminescence immunoassay of secreted HBsAg); format: cell-based, HBV; conditions: Hepatitis B virus, HepG2.2.15, HBsAg secretion, HepG2.2.15 cells, CLIA of culture supernatant
Procedure: HepG2.2.15 cells (Acs et al. Proc Natl Acad Sci USA, 84, (1987), 4641-4), a constitutively HBV-expressing cell line were cultured in DMEM+Glutamax-I medium (Invitrogen, Carlsbad, Calif., USA), supplemented with 10% fetal bovine serum (Invitrogen) and G418 (Invitrogen) at a final concentration of 200 mg/L and maintained in 5% CO2 at 37° C.
HepG2.2.15 cells were seeded in duplicate into white, 96-well plates at 1.5×10^4 cells/well. The cells were treated with a three-fold serial dilution series of the compounds in DMSO. The final DMSO concentration in all wells was 1% and DMSO was used as no drug control.
The HBsAg chemiluminescence immunoassay (CLIA) kit (Autobio Diagnostics Co., Zhengzhou, China, Catalog number: CL0310-2) was used to measure the levels of secreted HBV antigens semi-quantitatively. For the detection 50 μL/well culture supernatant was used and HBsAg was quantified using HBsAg chemiluminescence immunoassay (CLIA) kit (Autobio Diagnostics Co., Zhengzhou, China, Catalog number: CL0310-2), 50 μL of the supernatant was transferred to the CLIA assay plate and 50 μL of enzyme conjugate reagent was added into each well. The plates were sealed and gently agitated for 1 hour at room temperature. The supernatant-enzyme-mixture was discarded and wells were washed 6 times with 300 μL of PBS.
The residual liquid was removed by plating the CLIA plate right side down on absorbent tissue paper. 25 μL of substrates A and B were added to each well. Luminance was measured using a luminometer (Mithras LB 940 Multimode Microplate Reader) after 10 minutes incubation. Dose-response curves were generated and the IC50 value was extrapolated by using the E-WorkBook Suite (ID Business Solutions Ltd., Guildford, UK). The IC50 was defined as the compound concentration (or conditioned media log dilution) at which HBsAg secretion was reduced by 50% compared to the no drug control.
The compounds according to formula I were tested for their capacity to inhibit HBsAg as described herein.

SMILES	IC50 [nM]
CC1c2cnc(-c3ncccn3)nc2CCN1c1cc(N2CCCC2CO)cc(F)n1 (stereo not drawn) [Example 30, [1-[2-fluoro-6-(5-methyl-2-pyrimidin-2-yl-7,8-dihydro-5H-pyrido[4,3-d]pyrimidin-6-yl)-4-pyridyl]pyrrolidin-2-yl]methanol]	7
CC1c2cnc(-c3ncccn3)nc2CCN1c1cc(F)cc(N2CCCC2CO)n1 (stereo not drawn) [Example 31, [1-[4-fluoro-6-(5-methyl-2-pyrimidin-2-yl-7,8-dihydro-5H-pyrido[4,3-d]pyrimidin-6-yl)-2-pyridyl]pyrrolidin-2-yl]methanol]	14
CC1c2cnc(-c3ncccn3)nc2CCN1c1cc(N2CCCC2C(=O)O)cc(F)n1 (stereo not drawn) [Example 32, 1-[2-fluoro-6-(5-methyl-2-pyrimidin-2-yl-7,8-dihydro-5H-pyrido[4,3-d]pyrimidin-6-yl)-4-pyridyl]pyrrolidine-2-carboxylic acid]	391
CC1c2cnc(-c3ncccn3)nc2CCN1c1cc(F)cc(N2CCCC2C(=O)O)n1 (stereo not drawn) [Example 33, 1-[4-fluoro-6-(5-methyl-2-pyrimidin-2-yl-7,8-dihydro-5H-pyrido[4,3-d]pyrimidin-6-yl)-2-pyridyl]pyrrolidine-2-carboxylic acid]	93
COCC1CCCN1c1cc(F)nc(N2CCc3nc(-c4ncccn4)ncc3C2C)c1 (stereo not drawn) [Example 34, 6-[6-fluoro-4-[2-(methoxymethyl)pyrrolidin-1-yl]-2-pyridyl]-5-methyl-2-pyrimidin-2-yl-7,8-dihydro-5H-pyrido[4,3-d]pyrimidine]	54
COCC1CCCN1c1cc(F)cc(N2CCc3nc(-c4ncccn4)ncc3C2C)n1 (stereo not drawn) [Example 35, 6-[4-fluoro-6-[2-(methoxymethyl)pyrrolidin-1-yl]-2-pyridyl]-5-methyl-2-pyrimidin-2-yl-7,8-dihydro-5H-pyrido[4,3-d]pyrimidine]	33
CC1c2cnc(-c3ncccn3)nc2CCN1c1cc(N2CCC(O)C2)cc(F)n1 (stereo not drawn) [Example 36, 1-[2-fluoro-6-(5-methyl-2-pyrimidin-2-yl-7,8-dihydro-5H-pyrido[4,3-d]pyrimidin-6-yl)-4-pyridyl]pyrrolidin-3-ol]	12
CC1c2cnc(-c3ncccn3)nc2CCN1c1cc(F)cc(N2CCC(O)C2)n1 (stereo not drawn) [Example 37, 1-[4-fluoro-6-(5-methyl-2-pyrimidin-2-yl-7,8-dihydro-5H-pyrido[4,3-d]pyrimidin-6-yl)-2-pyridyl]pyrrolidin-3-ol]	11
CC1c2cnc(-c3ncccn3)nc2CCN1c1cc(N2CCC(C(=O)O)C2)cc(F)n1 (stereo not drawn) [Example 38, 1-[2-fluoro-6-(5-methyl-2-pyrimidin-2-yl-7,8-dihydro-5H-pyrido[4,3-d]pyrimidin-6-yl)-4-pyridyl]pyrrolidine-3-carboxylic acid]	1010
CC1c2cnc(-c3ncccn3)nc2CCN1c1cc(F)cc(N2CCC(C(=O)O)C2)n1 (stereo not drawn) [Example 39, 1-[4-fluoro-6-(5-methyl-2-pyrimidin-2-yl-7,8-dihydro-5H-pyrido[4,3-d]pyrimidin-6-yl)-2-pyridyl]pyrrolidine-3-carboxylic acid]	108
CC1COCCN1c1cc(F)nc(N2CCc3nc(-c4ncccn4)ncc3C2C)c1 (stereo not drawn) [Example 40, 4-[2-fluoro-6-(5-methyl-2-pyrimidin-2-yl-7,8-dihydro-5H-pyrido[4,3-d]pyrimidin-6-yl)-4-pyridyl]-3-methyl-morpholine]	10
CC1COCCN1c1cc(F)cc(N2CCc3nc(-c4ncccn4)ncc3C2C)n1 (stereo not drawn) [Example 41, 4-[4-fluoro-6-(5-methyl-2-pyrimidin-2-yl-7,8-dihydro-5H-pyrido[4,3-d]pyrimidin-6-yl)-2-pyridyl]-3-methyl-morpholine]	17
CC1c2cnc(-c3ncccn3)nc2CCN1c1cc(N2CCCC2C(N)=O)cc(F)n1 (stereo not drawn) [Example 42, 1-[2-fluoro-6-(5-methyl-2-pyrimidin-2-yl-7,8-dihydro-5H-pyrido[4,3-d]pyrimidin-6-yl)-4-pyridyl]pyrrolidine-2-carboxamide]	319
CC1c2cnc(-c3ncccn3)nc2CCN1c1cc(F)cc(N2CCCC2C(N)=O)n1 (stereo not drawn) [Example 43, 1-[4-fluoro-6-(5-methyl-2-pyrimidin-2-yl-7,8-dihydro-5H-pyrido[4,3-d]pyrimidin-6-yl)-2-pyridyl]pyrrolidine-2-carboxamide]	134
CC1c2cnc(-c3ncccn3)nc2CCN1c1cc(N2CCC(C(N)=O)C2)cc(F)n1 (stereo not drawn) [Example 44, 1-[2-fluoro-6-(5-methyl-2-pyrimidin-2-yl-7,8-dihydro-5H-pyrido[4,3-d]pyrimidin-6-yl)-4-pyridyl]pyrrolidine-3-carboxamide]	54
CC1c2cnc(-c3ncccn3)nc2CCN1c1cc(F)cc(N2CCC(C(N)=O)C2)n1 (stereo not drawn) [Example 45, 1-[4-fluoro-6-(5-methyl-2-pyrimidin-2-yl-7,8-dihydro-5H-pyrido[4,3-d]pyrimidin-6-yl)-2-pyridyl]pyrrolidine-3-carboxamide]	18
CC1c2cnc(-c3ncccn3)nc2CCN1c1cc(N2CCOC(C(N)=O)C2)cc(F)n1 (stereo not drawn) [Example 46, 4-[2-Fluoro-6-(5-methyl-2-pyrimidin-2-yl-7,8-dihydro-5H-pyrido[4,3-d]pyrimidin-6-yl)-4-pyridyl]morpholine-2-carboxamide]	36
CC1c2cnc(-c3ncccn3)nc2CCN1c1cc(F)cc(N2CCOC(C(N)=O)C2)n1 (stereo not drawn) [Example 47, 4-[4-fluoro-6-(5-methyl-2-pyrimidin-2-yl-7,8-dihydro-5H-pyrido[4,3-d]pyrimidin-6-yl)-2-pyridyl]morpholine-2-carboxamide]	33
CC1c2cnc(-c3ncccn3)nc2CCN1c1cc(NC2CCOCC2)cc(F)n1 (stereo not drawn) [Example 48, 2-fluoro-6-(5-methyl-2-pyrimidin-2-yl-7,8-dihydro-5H-pyrido[4,3-d]pyrimidin-6-yl)-N-tetrahydropyran-4-yl-pyridin-4-amine]	55
CC1c2cnc(-c3ncccn3)nc2CCN1c1cc(F)cc(NC2CCOCC2)n1 (stereo not drawn) [Example 49, 4-fluoro-6-(5-methyl-2-pyrimidin-2-yl-7,8-dihydro-5H-pyrido[4,3-d]pyrimidin-6-yl)-N-tetrahydropyran-4-yl-pyridin-2-amine]	56
CC1c2cnc(-c3ncccn3)nc2CCN1c1cc(N2CCNC(C(=O)O)C2)cc(F)n1 (stereo not drawn) [Example 50, 4-[2-Fluoro-6-(5-methyl-2-pyrimidin-2-yl-7,8-dihydro-5H-pyrido[4,3-d]pyrimidin-6-yl)-4-pyridyl]piperazine-2-carboxylic acid]	1940
CC1c2cnc(-c3ncccn3)nc2CCN1c1cc(F)cc(N2CCC(C(=O)O)CC2)n1 (stereo not drawn) [Example 51, 1-[4-fluoro-6-(5-methyl-2-pyrimidin-2-yl-7,8-dihydro-5H-pyrido[4,3-d]pyrimidin-6-yl)-2-pyridyl]piperidine-4-carboxylic acid]	346
CC1c2cnc(-c3ncccn3)nc2CCN1c1cc(N2CCC(C(=O)O)CC2)cc(F)n1 (stereo not drawn) [Example 52, 1-[2-fluoro-6-(5-methyl-2-pyrimidin-2-yl-7,8-dihydro-5H-pyrido[4,3-d]pyrimidin-6-yl)-4-pyridyl]piperidine-4-carboxylic acid]	1040
CC1c2cnc(-c3ncccn3)nc2CCN1c1cc(F)cc(N2CC(C(=O)O)C2)n1 (stereo not drawn) [Example 53, 1-[4-fluoro-6-(5-methyl-2-pyrimidin-2-yl-7,8-dihydro-5H-pyrido[4,3-d]pyrimidin-6-yl)-2-pyridyl]azetidine-3-carboxylic acid]	4710
